The target in one experiment is T1, human AT1 receptor (Homo sapiens, UniProt P30556).
T1 construct: expressed in transfected cells; host or cells: CHO-K1
T1 sequence (P30556 1-359): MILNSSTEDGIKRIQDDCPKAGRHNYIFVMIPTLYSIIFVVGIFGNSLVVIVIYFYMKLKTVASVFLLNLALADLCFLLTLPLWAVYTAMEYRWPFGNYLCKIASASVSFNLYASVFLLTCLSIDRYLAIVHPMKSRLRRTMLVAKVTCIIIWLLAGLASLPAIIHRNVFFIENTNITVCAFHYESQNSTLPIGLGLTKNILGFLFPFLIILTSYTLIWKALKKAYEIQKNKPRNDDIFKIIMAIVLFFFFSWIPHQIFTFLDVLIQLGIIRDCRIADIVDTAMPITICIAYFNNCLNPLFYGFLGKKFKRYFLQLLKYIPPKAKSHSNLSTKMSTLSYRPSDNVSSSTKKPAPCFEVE
Nature of the experiment: Binding assay using human AT1 receptor-expressing CHO-K1 cell membrane fraction ([125I]-angiotensin II). Particulars: 22.5 pM [125I]-angiotensin II, 9 μg AT1 membrane, 1 hr room temperature; read-out: AT1 receptor binding inhibitory action (IC50 (nM)). An outline of the steps:
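Radioligand displacement: test compound competed with [125I]-angiotensin II (22.5 pM) on stable CHO-K1 AT1 membrane fraction, 1 hr, room temperature, Tris pH 7.4/MgCl2 buffer ± 0.3 mg/mL BSA. Filtration then scintillation counting; 1 μM CV-11974 defined nonspecific binding. Values are IC50s.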

In the next experiment the target is T2, PPARγ (Homo sapiens, UniProt P37231).
T2 construct: expressed in transfected cells; host or cells: CHO-K1
T2 sequence (P37231 1-477 isoform P37231-2): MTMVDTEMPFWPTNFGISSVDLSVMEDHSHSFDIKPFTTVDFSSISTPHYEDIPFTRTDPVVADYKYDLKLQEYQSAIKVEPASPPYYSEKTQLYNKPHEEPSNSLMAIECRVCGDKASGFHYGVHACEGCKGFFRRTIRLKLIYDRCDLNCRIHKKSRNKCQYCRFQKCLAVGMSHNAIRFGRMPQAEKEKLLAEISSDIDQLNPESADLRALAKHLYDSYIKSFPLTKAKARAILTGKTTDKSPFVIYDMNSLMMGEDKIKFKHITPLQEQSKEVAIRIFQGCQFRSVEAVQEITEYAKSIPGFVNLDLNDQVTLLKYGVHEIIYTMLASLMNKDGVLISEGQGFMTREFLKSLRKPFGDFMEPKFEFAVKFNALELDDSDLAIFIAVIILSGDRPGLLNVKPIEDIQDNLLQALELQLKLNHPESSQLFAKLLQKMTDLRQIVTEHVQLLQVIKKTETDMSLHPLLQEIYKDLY
T2 sequence (P19793 1-462 partner): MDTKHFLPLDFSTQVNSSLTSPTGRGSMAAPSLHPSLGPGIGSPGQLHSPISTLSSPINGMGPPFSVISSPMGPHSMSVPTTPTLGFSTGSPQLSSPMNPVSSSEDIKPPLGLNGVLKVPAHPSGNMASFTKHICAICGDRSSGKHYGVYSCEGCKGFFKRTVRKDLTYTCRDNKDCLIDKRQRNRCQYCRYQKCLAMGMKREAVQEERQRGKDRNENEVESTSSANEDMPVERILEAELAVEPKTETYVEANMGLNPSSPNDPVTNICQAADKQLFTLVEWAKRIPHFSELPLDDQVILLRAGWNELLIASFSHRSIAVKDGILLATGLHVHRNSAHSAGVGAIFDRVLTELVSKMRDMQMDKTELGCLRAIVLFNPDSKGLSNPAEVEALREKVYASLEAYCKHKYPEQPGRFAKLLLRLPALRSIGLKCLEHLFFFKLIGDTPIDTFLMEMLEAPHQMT
The experiment can be described thus: Evaluation of PPARγ activating action (luciferase reporter in PPARγ:RXRα:4ERPP/CHO-K1 cells). The following applies: CHO-K1, 24 h; test compound 10^−6 M; luciferase activity relative to control compound X (1 μM) = 100%, non-administration group = 0%; read-out: PPARγ activating action (activation % (10^−6 M)). The class given is cell-based. Summed up: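 Activity is expressed as percent, where vehicle gives 0% and 1 μM compound X gives 100%, based on luciferase luminescence. Reporter CHO-K1 cells co-expressing PPARγ:RXRα with a 4ERPP-driven luciferase were incubated with test compound for one day at 37 °C in medium with 0.1% fatty acid-free BSA.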
For orientation: In a reporter assay the amount or activity of a reporter protein is the signal.

Our source for the IC50 and activation values is patent US20100056526A1, “HETEROMONOCYCLIC COMPOUND AND USE THEREOF” (Takeda Pharmaceutical Company Limited, priority 2006, published 2010).

In the case of `CCCc1nc(C)n(-c2ccc(OC3CCCC(=O)CC3)cc2)c(=O)c1Cc1ccc(-c2ccccc2-c2noc(=O)[nH]2)cc1` (stereo not shown) [Example 437, 2-methyl-3-{4-[(4-oxocycloheptyl)oxy]phenyl}-5-{[2′-(5-oxo-4,5-dihydro-1,2,4-oxadiazol-3-yl)biphenyl-4-yl]methyl}-6-propylpyrimidin-4(3H)-one], the half-maximal inhibitory concentration (IC50) (as a rule, the concentration that gives 50% inhibition) at human AT1 receptor is 1 nM. The activation at 1 µM at PPARγ was found to be 18.1%.

Turning to `CCCc1nc(CC)c(-c2ccc(OC(C)C)cc2F)c(=O)n1Cc1ccc(-c2ccccc2-c2noc(O)n2)cc1` [Example 458, 6-ethyl-5-(2-fluoro-4-isopropoxyphenyl)-3-{[2′-(5-oxo-4,5-dihydro-1,2,4-oxadiazol-3-yl)biphenyl-4-yl]methyl}-2-propylpyrimidin-4(3H)-one], the IC50 at human AT1 receptor came out at 2.2 nM. Besides, on PPARγ, the activation at 1 µM came out at 36%.

Take `C#CCC(C)Oc1ccc(-n2c(C)nc(CCC)c(Cc3ccc(-c4ccccc4-c4noc(=O)[nH]4)cc3)c2=O)cc1` (stereo not shown) [Example 324, 2-methyl-3-{4-[(1-methylbut-3-yn-1-yl)oxy]phenyl}-5-{[2′-(5-oxo-4,5-dihydro-1,2,4-oxadiazol-3-yl)biphenyl-4-yl]methyl}-6-propylpyrimidin-4(3H)-one]: the IC50 on human AT1 receptor amounted to 1.7 nM. The activation at 1 µM on PPARγ was 45.2%.

Regarding `CCCCc1nc(C)n(-c2ccoc2)c(=O)c1Cc1ccc(-c2ccccc2-c2noc(=O)[nH]2)cc1` [Example 206, 6-butyl-3-(3-furyl)-2-methyl-5-{[2′-(5-oxo-4,5-dihydro-1,2,4-oxadiazol-3-yl)biphenyl-4-yl]methyl}pyrimidin-4(3H)-one], at human AT1 receptor, the IC50 was determined as 2 nM. Further, the activation at 1 µM at PPARγ was determined as 21.8%.

Take `CCCc1nc(C)c(-c2ccc(OC(C)C)nc2)c(=O)n1Cc1ccc(-c2ccccc2-c2noc(=O)[nH]2)cc1F` [Example 482, 3-{[3-fluoro-2′-(5-oxo-4,5-dihydro-1,2,4-oxadiazol-3-yl)biphenyl-4-yl]methyl}-5-(6-isopropoxypyridin-3-yl)-6-methyl-2-propylpyrimidin-4(3H)-one]: the IC50 on human AT1 receptor worked out at 1.9 nM. Besides, the activation at 1 µM on PPARγ stood at 30.4%.

Regarding `CCCc1nc(C)n(-c2ccc(OC(C)(C)C(C)=O)cc2)c(=O)c1Cc1ccc(-c2ccccc2-c2noc(=O)[nH]2)cc1` [Example 440, 3-[4-(1,1-dimethyl-2-oxopropoxy)phenyl]-2-methyl-5-{[2′-(5-oxo-4,5-dihydro-1,2,4-oxadiazol-3-yl)biphenyl-4-yl]methyl}-6-propylpyrimidin-4(3H)-one], at human AT1 receptor, the IC50 is 1.6 nM. Besides, the activation at 1 µM on PPARγ came out at 29.9%.

Turning to `CCCc1nc(C)c(CC2CCCCO2)c(=O)n1Cc1ccc(-c2ccccc2-c2noc(=O)[nH]2)cc1` (stereo not shown) [Example 7, 6-methyl-3-{[2′-(5-oxo-4,5-dihydro-1,2,4-oxadiazol-3-yl)biphenyl-4-yl]methyl}-2-propyl-5-(tetrahydro-2H-pyran-2-ylmethyl)pyrimidin-4(3H)-one], the IC50 on human AT1 receptor came out at 1.4 nM. The activation at 1 µM at PPARγ amounted to 42.6%.

As for `CCCCc1nc(C)n(Cc2nc3ccccc3s2)c(=O)c1Cc1ccc(-c2ccccc2-c2noc(=O)[nH]2)cc1` [Example 64, 3-(1,3-benzothiazol-2-ylmethyl)-6-butyl-2-methyl-5-{[2′-(5-oxo-4,5-dihydro-1,2,4-oxadiazol-3-yl)biphenyl-4-yl]methyl}pyrimidin-4(3H)-one], the IC50 on human AT1 receptor was 2 nM. Moreover, the activation at 1 µM on PPARγ came out at 59.9%.

As for `CCSc1nc(C)c(Cc2ccccc2)c(=O)n1Cc1ccc(-c2ccccc2-c2noc(=O)[nH]2)cc1` [Example 3, 5-benzyl-2-(ethylthio)-6-methyl-3-{[2′-(5-oxo-4,5-dihydro-1,2,4-oxadiazol-3-yl)biphenyl-4-yl]methyl}pyrimidin-4(3H)-one], the IC50 at human AT1 receptor amounted to 2.5 nM. Also, on PPARγ, the activation at 1 µM came out at 57.1%.

Consider `CCCc1nc(C)n(-c2ccc(OC3CCC(O)CC3)cc2)c(=O)c1Cc1ccc(-c2ccccc2-c2noc(O)n2)cc1F` (stereo not shown) [Example 343, 5-{[3-fluoro-2′-(5-oxo-4,5-dihydro-1,2,4-oxadiazol-3-yl)biphenyl-4-yl]methyl}-3-{4-[(4-hydroxycyclohexyl)oxy]phenyl}-2-methyl-6-propylpyrimidin-4(3H)-one], for which the IC50 at human AT1 receptor amounted to 0.7 nM. For the same molecule, the activation at 1 µM on PPARγ is 15.2%.

In the case of `CCCc1nc(CC)n(-c2ccc(O[C@H]3CC[C@H](O)CC3)cc2)c(=O)c1Cc1ccc(-c2ccccc2-c2noc(=O)[nH]2)cc1` [Example 414, 2-ethyl-3-{4-[(trans-4-hydroxycyclohexyl)oxy]phenyl}-5-{[2′-(5-oxo-4,5-dihydro-1,2,4-oxadiazol-3-yl)biphenyl-4-yl]methyl}-6-propylpyrimidin-4(3H)-one], the IC50 at human AT1 receptor is 1.1 nM. The activation at 1 µM at PPARγ turned out to be 45%.

Turning to `CCCCc1nc(C2CC2)c(-c2ccc(OC(C)(C)CO)cc2)c(=O)n1Cc1ccc(-c2ccccc2-c2noc(O)n2)cc1` [Example 510, 2-butyl-6-cyclopropyl-5-[4-(2-hydroxy-1,1-dimethylethoxy)phenyl]-3-{[2′-(5-oxo-4,5-dihydro-1,2,4-oxadiazol-3-yl)biphenyl-4-yl]methyl}pyrimidin-4(3H)-one], the IC50 at human AT1 receptor was determined as 2.3 nM. For the same molecule, the activation at 1 µM on PPARγ was determined as 24.4%.

With `CCCc1nc(C)n(-c2ccc3c(c2)CC(C)(C)O3)c(=O)c1Cc1ccc(-c2ccccc2-c2noc(=O)[nH]2)cc1` [Example 239, 3-(2,2-dimethyl-2,3-dihydro-1-benzofuran-5-yl)-2-methyl-5-{[2′-(5-oxo-4,5-dihydro-1,2,4-oxadiazol-3-yl)biphenyl-4-yl]methyl}-6-propylpyrimidin-4(3H)-one], the IC50 on human AT1 receptor was 1.8 nM. Besides, at PPARγ, the activation at 1 µM amounted to 31.6%.

`CCCc1nc(C)c(-c2ccc(OC(C)(C)C)cc2)c(=O)n1Cc1ccc(-c2ccccc2-c2noc(O)n2)cc1F` [Example 475, 5-(4-tert-butoxyphenyl)-3-{[3-fluoro-2′-(5-oxo-4,5-dihydro-1,2,4-oxadiazol-3-yl)biphenyl-4-yl]methyl}-6-methyl-2-propylpyrimidin-4(3H)-one]: the IC50 at human AT1 receptor is 2 nM. Further, the activation at 1 µM at PPARγ was 28.7%.

With `CCCc1nc(CC)n(-c2ccc(OC(C)C)c(F)c2)c(=O)c1Cc1ccc(-c2ccccc2-c2noc(=O)[nH]2)cc1` [Example 363, 2-ethyl-3-(3-fluoro-4-isopropoxyphenyl)-5-{[2′-(5-oxo-4,5-dihydro-1,2,4-oxadiazol-3-yl)biphenyl-4-yl]methyl}-6-propylpyrimidin-4(3H)-one], the IC50 at human AT1 receptor came to 2.1 nM. The activation at 1 µM on PPARγ stood at 53.7%.

Turning to `CCCc1nc(C)n(-c2ccc(OC(C)C)cc2)c(=O)c1Cc1ccc(-c2ccccc2-c2noc(O)n2)cc1` [Example 88, 3-(4-isopropoxyphenyl)-2-methyl-5-{[2′-(5-oxo-4,5-dihydro-1,2,4-oxadiazol-3-yl)biphenyl-4-yl]methyl}-6-propylpyrimidin-4(3H)-one], on human AT1 receptor, the IC50 came out at 1.7 nM. Besides, on PPARγ, the activation at 1 µM was 31.2%.

For the molecule `CCOc1nc(C)c(Cc2ccccc2)c(=O)n1Cc1ccc(-c2ccccc2-c2noc(=O)[nH]2)cc1` [Example 4, 5-benzyl-2-ethoxy-6-methyl-3-{[2′-(5-oxo-4,5-dihydro-1,2,4-oxadiazol-3-yl)biphenyl-4-yl]methyl}pyrimidin-4(3H)-one], the IC50 at human AT1 receptor was 1.9 nM. The activation at 1 µM on PPARγ worked out at 35.8%.
